As usually defined, the logP is the decadic logarithm of the partition coefficient of the neutral form, usually between octanol and water. Lower therefore signals a more hydrophilic compound.

This note sets out measurements from the OPERA property sets (Mansouri et al. 2018).

In turn, `ClC1=C(Cl)[C@]2(Cl)[C@H]3[C@H]([C@@H]4C=C[C@H]3C4)[C@@]1(Cl)C2(Cl)Cl` (racemic) returned a logP of 6.5.
For the molecule `CCc1ccc2c(c1)C(=O)c1ccccc1C2=O`, the logP is 4.37.
In the case of `CCCCC(CC)COC(=O)c1ccccc1C(=O)OCC(CC)CCCC` (stereo not drawn) it was 7.6; in that of `Clc1c(Cl)c(Cl)c(-c2ccccc2)c(Cl)c1Cl`, 6.75.
In the case of `Clc1c(Cl)c(Cl)c(Cl)c(Cl)c1Cl` it was 5.73; in that of `Clc1cc(-c2cc(Cl)c(Cl)c(Cl)c2)cc(Cl)c1Cl`, 7.41.
In the case of `COP(=S)(OC)Oc1cc(Cl)c(I)cc1Cl` it was 5.51; in that of `Clc1cccc(Cl)c1-c1c(Cl)cccc1Cl`, 5.94.
Take `ClC1=C(Cl)[C@]2(Cl)[C@@H]3[C@@H]4C[C@@H]([C@H]5O[C@@H]45)[C@@H]3[C@@]1(Cl)C2(Cl)Cl` (single isomer, unassigned): the lipophilicity (logP) was 5.4.
Then `CCCCc1ccccc1`, with 4.38; and `CCOP(=S)(OCC)Oc1cc(Cl)c(Br)cc1Cl`, with 6.15; and `Clc1ccc(-c2ccc(Cl)c(Cl)c2)cc1Cl`, with 6.63.
In turn, `Clc1cc(Cl)c(Cl)c(-c2c(Cl)c(Cl)cc(Cl)c2Cl)c1Cl` displayed a log partition coefficient (logP) of 7.73.
